Results as given in PubChem BioAssay (NCI).
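Interpolation was linear, between the two tested concentrations surrounding the appropriate level; five concentrations were tested over 48 hours in 96-well plates. TGI marks complete inhibition of growth.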

test system: NCI-H226 lung; assay: NCI-60 cell line screen, 48 h

Structure (SMILES) | TGI [µM]
C=CCSc1nc2c(N)ncnc2n1C1OC(CO)C(O)C1O (stereo not given) | > 100

test system: NCI-H23 lung; assay: NCI-60 cell line screen, 48 h

Structure (SMILES) | TGI [µM]
C[n+]1cn(C2=C([O-])c3ccccc3C(=O)/C2=N\S(=O)(=O)c2ccccc2)c2ccccc21 | 34.7
Cc1nn(C(=O)c2ccccc2O)c2c1C(c1ccccc1O)SC(N)=N2 (stereo not given) | > 10
O=C1NN=C2C=C(c3ccc(Cl)cc3)CC(c3cccc(Br)c3)C12 (stereo not given) | > 100
COC(=O)C1(NC(=O)C(CC(=O)OCc2ccccc2)NC(=O)OCc2ccccc2)CCCCCCC1 (stereo not given) | > 100
C=CCSc1nc2c(N)ncnc2n1C1OC(CO)C(O)C1O (stereo not given) | > 100

test system: NCI-H460 lung; assay: NCI-60 cell line screen, 48 h

Structure (SMILES) | TGI [µM]
C[n+]1cn(C2=C([O-])c3ccccc3C(=O)/C2=N\S(=O)(=O)c2ccccc2)c2ccccc21 | 84.5
Cc1nn(C(=O)c2ccccc2O)c2c1C(c1ccccc1O)SC(N)=N2 (stereo not given) | > 10
O=C1NN=C2C=C(c3ccc(Cl)cc3)CC(c3cccc(Br)c3)C12 (stereo not given) | > 100
COC(=O)C1(NC(=O)C(CC(=O)OCc2ccccc2)NC(=O)OCc2ccccc2)CCCCCCC1 (stereo not given) | > 100
C=CCSc1nc2c(N)ncnc2n1C1OC(CO)C(O)C1O (stereo not given) | > 100

test system: NCI-H522 lung; assay: NCI-60 cell line screen, 48 h

Structure (SMILES) | TGI [µM]
C[n+]1cn(C2=C([O-])c3ccccc3C(=O)/C2=N\S(=O)(=O)c2ccccc2)c2ccccc21 | 26.8
Cc1nn(C(=O)c2ccccc2O)c2c1C(c1ccccc1O)SC(N)=N2 (stereo not given) | > 10
O=C1NN=C2C=C(c3ccc(Cl)cc3)CC(c3cccc(Br)c3)C12 (stereo not given) | > 100
COC(=O)C1(NC(=O)C(CC(=O)OCc2ccccc2)NC(=O)OCc2ccccc2)CCCCCCC1 (stereo not given) | > 100
C=CCSc1nc2c(N)ncnc2n1C1OC(CO)C(O)C1O (stereo not given) | > 100

test system: NCI/ADR-RES ovarian; assay: NCI-60 cell line screen, 48 h

Structure (SMILES) | TGI [µM]
C[n+]1cn(C2=C([O-])c3ccccc3C(=O)/C2=N\S(=O)(=O)c2ccccc2)c2ccccc21 | > 100
Cc1nn(C(=O)c2ccccc2O)c2c1C(c1ccccc1O)SC(N)=N2 (stereo not given) | > 10
O=C1NN=C2C=C(c3ccc(Cl)cc3)CC(c3cccc(Br)c3)C12 (stereo not given) | > 100
COC(=O)C1(NC(=O)C(CC(=O)OCc2ccccc2)NC(=O)OCc2ccccc2)CCCCCCC1 (stereo not given) | > 100
C=CCSc1nc2c(N)ncnc2n1C1OC(CO)C(O)C1O (stereo not given) | > 100

test system: OVCAR-3 ovarian; assay: NCI-60 cell line screen, 48 h

Structure (SMILES) | TGI [µM]
C[n+]1cn(C2=C([O-])c3ccccc3C(=O)/C2=N\S(=O)(=O)c2ccccc2)c2ccccc21 | 44.9
Cc1nn(C(=O)c2ccccc2O)c2c1C(c1ccccc1O)SC(N)=N2 (stereo not given) | > 10
O=C1NN=C2C=C(c3ccc(Cl)cc3)CC(c3cccc(Br)c3)C12 (stereo not given) | > 100
COC(=O)C1(NC(=O)C(CC(=O)OCc2ccccc2)NC(=O)OCc2ccccc2)CCCCCCC1 (stereo not given) | > 100
C=CCSc1nc2c(N)ncnc2n1C1OC(CO)C(O)C1O (stereo not given) | > 100

test system: OVCAR-4 ovarian; assay: NCI-60 cell line screen, 48 h

Structure (SMILES) | TGI [µM]
C[n+]1cn(C2=C([O-])c3ccccc3C(=O)/C2=N\S(=O)(=O)c2ccccc2)c2ccccc21 | 37.8
Cc1nn(C(=O)c2ccccc2O)c2c1C(c1ccccc1O)SC(N)=N2 (stereo not given) | > 10
O=C1NN=C2C=C(c3ccc(Cl)cc3)CC(c3cccc(Br)c3)C12 (stereo not given) | > 100
COC(=O)C1(NC(=O)C(CC(=O)OCc2ccccc2)NC(=O)OCc2ccccc2)CCCCCCC1 (stereo not given) | > 100
C=CCSc1nc2c(N)ncnc2n1C1OC(CO)C(O)C1O (stereo not given) | > 100

test system: OVCAR-5 ovarian; assay: NCI-60 cell line screen, 48 h

Structure (SMILES) | TGI [µM]
C[n+]1cn(C2=C([O-])c3ccccc3C(=O)/C2=N\S(=O)(=O)c2ccccc2)c2ccccc21 | > 100
Cc1nn(C(=O)c2ccccc2O)c2c1C(c1ccccc1O)SC(N)=N2 (stereo not given) | > 10
O=C1NN=C2C=C(c3ccc(Cl)cc3)CC(c3cccc(Br)c3)C12 (stereo not given) | > 100
COC(=O)C1(NC(=O)C(CC(=O)OCc2ccccc2)NC(=O)OCc2ccccc2)CCCCCCC1 (stereo not given) | > 100
C=CCSc1nc2c(N)ncnc2n1C1OC(CO)C(O)C1O (stereo not given) | > 100

test system: OVCAR-8 ovarian; assay: NCI-60 cell line screen, 48 h

Structure (SMILES) | TGI [µM]
C[n+]1cn(C2=C([O-])c3ccccc3C(=O)/C2=N\S(=O)(=O)c2ccccc2)c2ccccc21 | 77.4
Cc1nn(C(=O)c2ccccc2O)c2c1C(c1ccccc1O)SC(N)=N2 (stereo not given) | > 10
O=C1NN=C2C=C(c3ccc(Cl)cc3)CC(c3cccc(Br)c3)C12 (stereo not given) | > 100
COC(=O)C1(NC(=O)C(CC(=O)OCc2ccccc2)NC(=O)OCc2ccccc2)CCCCCCC1 (stereo not given) | > 100
C=CCSc1nc2c(N)ncnc2n1C1OC(CO)C(O)C1O (stereo not given) | > 100

test system: PC-3 prostate; assay: NCI-60 cell line screen, 48 h

Structure (SMILES) | TGI [µM]
C[n+]1cn(C2=C([O-])c3ccccc3C(=O)/C2=N\S(=O)(=O)c2ccccc2)c2ccccc21 | > 100
Cc1nn(C(=O)c2ccccc2O)c2c1C(c1ccccc1O)SC(N)=N2 (stereo not given) | > 10
O=C1NN=C2C=C(c3ccc(Cl)cc3)CC(c3cccc(Br)c3)C12 (stereo not given) | > 100
COC(=O)C1(NC(=O)C(CC(=O)OCc2ccccc2)NC(=O)OCc2ccccc2)CCCCCCC1 (stereo not given) | > 100
C=CCSc1nc2c(N)ncnc2n1C1OC(CO)C(O)C1O (stereo not given) | > 100

test system: RPMI-8226 leukemia; assay: NCI-60 cell line screen, 48 h

Structure (SMILES) | TGI [µM]
C[n+]1cn(C2=C([O-])c3ccccc3C(=O)/C2=N\S(=O)(=O)c2ccccc2)c2ccccc21 | > 100
Cc1nn(C(=O)c2ccccc2O)c2c1C(c1ccccc1O)SC(N)=N2 (stereo not given) | 8.19
O=C1NN=C2C=C(c3ccc(Cl)cc3)CC(c3cccc(Br)c3)C12 (stereo not given) | > 100
COC(=O)C1(NC(=O)C(CC(=O)OCc2ccccc2)NC(=O)OCc2ccccc2)CCCCCCC1 (stereo not given) | 39.2
C=CCSc1nc2c(N)ncnc2n1C1OC(CO)C(O)C1O (stereo not given) | > 100

test system: RXF 393 renal; assay: NCI-60 cell line screen, 48 h

Structure (SMILES) | TGI [µM]
C[n+]1cn(C2=C([O-])c3ccccc3C(=O)/C2=N\S(=O)(=O)c2ccccc2)c2ccccc21 | 85.1
Cc1nn(C(=O)c2ccccc2O)c2c1C(c1ccccc1O)SC(N)=N2 (stereo not given) | > 10
O=C1NN=C2C=C(c3ccc(Cl)cc3)CC(c3cccc(Br)c3)C12 (stereo not given) | > 100
COC(=O)C1(NC(=O)C(CC(=O)OCc2ccccc2)NC(=O)OCc2ccccc2)CCCCCCC1 (stereo not given) | > 100
C=CCSc1nc2c(N)ncnc2n1C1OC(CO)C(O)C1O (stereo not given) | > 100

test system: SF-268 CNS; assay: NCI-60 cell line screen, 48 h

Structure (SMILES) | TGI [µM]
C[n+]1cn(C2=C([O-])c3ccccc3C(=O)/C2=N\S(=O)(=O)c2ccccc2)c2ccccc21 | > 100
Cc1nn(C(=O)c2ccccc2O)c2c1C(c1ccccc1O)SC(N)=N2 (stereo not given) | > 10
O=C1NN=C2C=C(c3ccc(Cl)cc3)CC(c3cccc(Br)c3)C12 (stereo not given) | > 100
COC(=O)C1(NC(=O)C(CC(=O)OCc2ccccc2)NC(=O)OCc2ccccc2)CCCCCCC1 (stereo not given) | > 100
C=CCSc1nc2c(N)ncnc2n1C1OC(CO)C(O)C1O (stereo not given) | > 100

test system: SF-295 CNS; assay: NCI-60 cell line screen, 48 h

Structure (SMILES) | TGI [µM]
C[n+]1cn(C2=C([O-])c3ccccc3C(=O)/C2=N\S(=O)(=O)c2ccccc2)c2ccccc21 | > 100
Cc1nn(C(=O)c2ccccc2O)c2c1C(c1ccccc1O)SC(N)=N2 (stereo not given) | > 10
O=C1NN=C2C=C(c3ccc(Cl)cc3)CC(c3cccc(Br)c3)C12 (stereo not given) | > 100
COC(=O)C1(NC(=O)C(CC(=O)OCc2ccccc2)NC(=O)OCc2ccccc2)CCCCCCC1 (stereo not given) | > 100
C=CCSc1nc2c(N)ncnc2n1C1OC(CO)C(O)C1O (stereo not given) | > 100

test system: SF-539 CNS; assay: NCI-60 cell line screen, 48 h

Structure (SMILES) | TGI [µM]
C[n+]1cn(C2=C([O-])c3ccccc3C(=O)/C2=N\S(=O)(=O)c2ccccc2)c2ccccc21 | > 100
Cc1nn(C(=O)c2ccccc2O)c2c1C(c1ccccc1O)SC(N)=N2 (stereo not given) | 3.53
O=C1NN=C2C=C(c3ccc(Cl)cc3)CC(c3cccc(Br)c3)C12 (stereo not given) | > 100
COC(=O)C1(NC(=O)C(CC(=O)OCc2ccccc2)NC(=O)OCc2ccccc2)CCCCCCC1 (stereo not given) | > 100
